Reference: patent US20080095826A1, “Method of Increasing Peripheral Blood Lymphocytes” (priority 2006, published 2008)
Values joined by “and” are separate entries in the source; they are usually repeats but may differ in a detail not shown here. Equal values may be shown once.

Columns and labels:
Assay type in all cases: in vivo, human
[1] = test system: Hospitalized elderly test subjects; test: Hasegawa Dementia Scale-Revised; conditions: before vs 2 months after intake; particularly for the items relating to speech; FIG. 3
Method: (§1) In the test of Example 1, the test subject was assessed by a nurse or a care assistant for the improvement of the general condition between immediately before the start of the administration of the rice gruel containing a salt of glutamic acid e and 2 months thereafter. The test subjects took the Hasegawa Dementia Scale-Revised for the following 9 items immediately before the administration and 2 months thereafter.
2. what year, what month, what date, what day of the week?
5. continue to subtract 7 from 100
6. say numbers in reverse order
7. read out from memory of item 4
9. say name of vegetables.

[2] = test system: Hospitalized elderly test subjects; test: Rice gruel with monosodium glutamate monohydrate fed to hospitalized elderly for 2 months; blood indices, eating ratio; conditions: Friedman test, p<0.05, FIG. 1
Method: Monosodium glutamate monohydrate was added to rice gruel to 0.5 wt %.
Hospitalized elderly test subjects (n=11 (2 males, 9 females), average age of 85.8±8.2, average body weight of 39.7±5.7 kg), were fed the above-mentioned rice gruel with glutamic acid 3 times a day for 2 months, establishing a continuous administration of 0.8 g on average of monosodium glutamate monohydrate per meal.
From 1 month before the start of administration to 2 months after the start of administration, the eating ratio (ratio of weight of food actually eaten to weight of provided food) was measured. Blood samples were collected early in the morning immediately before the start of administration, 1 month after the start of adminstration, 2 months after the start of administration, and 1 month after the completion of administration, and the blood indices were measured. In addition, the body weight was measured.

[3] = test system: Hospitalized elderly test subjects; test: Assessment of general condition by a nurse or care assistant (Table 2)
Method: as §1

[4] = of 11 test subjects, before vs 2 months after start of administration

For N[C@@H](CCC(=O)O)C(=O)[O-].O.[Na+] [monosodium glutamate monohydrate, Monosodium glutamate monohydrate], the “Hasegawa Dementia Scale-Revised grade points” value [1] was “grade points increased”, the peripheral lymphocyte count ([2]; 1 month after completion of administration compared to during administration) was “significantly decreased” and the peripheral lymphocyte count ([2]; during 2 months of administration, 0.8 g per meal 3 times a day) was “increased significantly”. For the same compound, the “mind and body conditions such as speech recovery, expression of emotion” value ([3]; almost all test subjects, 2 months after start of administration) was “tendency toward improvement”, the “Brighter facial expression: number of test subjects marked ◯” value [3, 4] was 8 and the “Clearer articulation: number of test subjects marked ◯” value [3, 4] was 7. The “Eating by tightly holding a spoon: number of test subjects marked ◯” value [3, 4] was 2, the “Establishment of conversation: number of test subjects marked ◯” value [3, 4] was 4 and the “Eyes can be opened wide: number of test subjects marked ◯” value [3, 4] was 6. For the same compound, the “Louder voice: number of test subjects marked ◯” value [3, 4] was 4, the “Outward facial expression (delight, anger, sorrow and pleasure): number of test subjects marked ◯” value [3, 4] was 6 and the “Recognition of meal: number of test subjects marked ◯” value [3, 4] was 3. For the same compound, the “Recovery of memory: number of test subjects marked ◯” value [3, 4] was 2, the “Use of voice: number of test subjects marked ◯” value [3, 4] was 4 and the “1 point for ◯, total points (scale of one to ten)” value ([3]; one value per individual test subject (No. 6598, 7012, 7020, 6342, 6990, 5039, 7082, 7142, 6957, 5742, 6362), 2 months, monohydrate) was 7 points and 3 points (5×) and 10 points and 2 points (2×) and 6 points and 4 points.
